Target: T1, TRPM7 (Mus musculus, UniProt Q923J1)
T1 construct: expressed in transfected cells; host or cells: HEK-293 tSA (HEK-293T) cells, transient transfection with Lipofectamine 2000
Assay: PI uptake cell death assay in TRPM7-expressing HEK-293 cells (type of assay from Example 1)
Assay type: cell-based, murine
Excerpt: The TRPM7 channel provides a pathway for mono- and divalent cations into the cell, and is unique in that it contains a functional C-terminal α-kinase domain. […] The induction of chemical anoxia in host cells such as recombinant HEK293 cells can be used to activate TRPM7. This activation is detectable with the use measurements of cellular calcium accumulation. This is achievable with the use of a fluorescent calcium indicator. Alternatively, this activation can also be measured using radiolabelled Ca2+ (^45Ca^2+) as described previously by Sattler et al. (Sattler et al., 1998) and Aarts et al. (Aarts et al., 2003).
Hoechst 33342 was purchased as a 10 mg/mL solution in water (Molecular Probes Inc., Eugene, Oreg.). Propidium iodide (PI) was purchased as a powder and prepared by dissolving in PBS at 1 mg/mL. PI solutions were stored at 4° C. until use. Hoechst and PI were added directly to cell culture to 5 μg/mL and 10 μg/mL respectively. Cells were incubated at room temperature or at 37° C. for 10 minutes to allow for adequate uptake, and fluorescence observed using a NIKON Eclipse TE2000 inverted microscope and TE-FM Epi-Fluorescence attachment (Nikon Canada).
Untransfected cells or cells transfected with the TRPM7/pTracer or ΔPDZ/pTracer construct were plated onto 24-well plates, 24-hours post-transfection. Untransfected cells were plated at 0.75×10^6 cells/well and transfected cells at 1×10^6 cells/well. The plates were coated with poly-D-lysine to strengthen cell adhesion and to minimize cell loss during washes. Cells were loaded by incubation with 5 μM fluo-3 AM and 0.02% pluronic in HBSS at 37° C. for 30 minutes. Following loading, cells were washed with an aglycaemic HBSS containing, in mM: 20 N-methyl-D-glucamine (NMDG), 121 NaCl, 5 KCl, 10 HEPES acid, 10 HEPES-Na salt, 3 NaHCO3, 1 Na-pyruvate, and 1.8 CaCl2, pH adjusted to 7.4 with HCl. Calcium uptake, as assessed by fluo-3 fluorescence, was measured in response to 0, 5, 10, 15, 20, or 25 mM sodium cyanide (NaCN; Mallinckrodt Baker Inc., Phillipsburg, N.J.) dissolved in aglycaemic HBSS. A 250 mM NaCN stock was prepared in water and stored at room temperature for up to 2 weeks. Measurements of fluo-3 fluorescence were taken over a 2 hour period at 10 minutes intervals at room temperature (22-25° C.). Calcium uptake assays were performed 48 hours post-transfection.
Cell death, as assessed by PI uptake, was examined at the end of the 2 hour calcium uptake assay. Cells were stained with 10 μg/mL PI and PI fluorescence measured using the Fluoroskan microplate reader (λ excitation=590 nm, λ emission=630 nm) and accompanying Ascent software (Thermo Electron Corp.). To obtain a reading of maximal fluorescence (Fmax), 0.5% Triton X-100 was added to each well and allowed to incubate for 20 minutes. Cell death assays were performed 48 hours post-transfection.
Data was entered into Excel (Microsoft, Seattle, Wash.) or SigmaPlot (SPSS Inc., Chicago, Ill.) for analysis. Pooled data are presented as the mean of at least 3 separate experiments±sem. Calcium uptake is expressed as a fraction of baseline uptake: ΔFt=(Ft−Fo)/Fo where Ft is the fluorescence at time t, and Fo is the fluorescence at baseline. Cell death is expressed as a percentage of total cell death: cell death (%)=Ft/Fmax×100 where Ft is the fluorescence at time t and Fmax is the maximal fluorescence obtained by permeabilization with Triton X-100. Concentration-response curves were fit by nonlinear regression with a 4 parameter logistic curve represented by the following equation: y=min+{(max−min)/[1+(x/EC50)n]} where y is the response at concentration x, min is the minimal response, max is the maximal response, EC50 is the concentration required for half-maximal response, and n is the Hill slope. Statistical analysis of data was carried out with a two-tailed Student's t test, or a one-way analysis of variance (ANOVA) followed by post hoc pairwise multiple comparisons testing using the Holm-Sidak method, where appropriate. […]

[1] = Table X, the lower the number, the more potent in protecting against cell death
[2] = Table X, the lower the number, the more potent
[3] = Table Y, commercially available compounds

T1 sequence (Q923J1 whole entry): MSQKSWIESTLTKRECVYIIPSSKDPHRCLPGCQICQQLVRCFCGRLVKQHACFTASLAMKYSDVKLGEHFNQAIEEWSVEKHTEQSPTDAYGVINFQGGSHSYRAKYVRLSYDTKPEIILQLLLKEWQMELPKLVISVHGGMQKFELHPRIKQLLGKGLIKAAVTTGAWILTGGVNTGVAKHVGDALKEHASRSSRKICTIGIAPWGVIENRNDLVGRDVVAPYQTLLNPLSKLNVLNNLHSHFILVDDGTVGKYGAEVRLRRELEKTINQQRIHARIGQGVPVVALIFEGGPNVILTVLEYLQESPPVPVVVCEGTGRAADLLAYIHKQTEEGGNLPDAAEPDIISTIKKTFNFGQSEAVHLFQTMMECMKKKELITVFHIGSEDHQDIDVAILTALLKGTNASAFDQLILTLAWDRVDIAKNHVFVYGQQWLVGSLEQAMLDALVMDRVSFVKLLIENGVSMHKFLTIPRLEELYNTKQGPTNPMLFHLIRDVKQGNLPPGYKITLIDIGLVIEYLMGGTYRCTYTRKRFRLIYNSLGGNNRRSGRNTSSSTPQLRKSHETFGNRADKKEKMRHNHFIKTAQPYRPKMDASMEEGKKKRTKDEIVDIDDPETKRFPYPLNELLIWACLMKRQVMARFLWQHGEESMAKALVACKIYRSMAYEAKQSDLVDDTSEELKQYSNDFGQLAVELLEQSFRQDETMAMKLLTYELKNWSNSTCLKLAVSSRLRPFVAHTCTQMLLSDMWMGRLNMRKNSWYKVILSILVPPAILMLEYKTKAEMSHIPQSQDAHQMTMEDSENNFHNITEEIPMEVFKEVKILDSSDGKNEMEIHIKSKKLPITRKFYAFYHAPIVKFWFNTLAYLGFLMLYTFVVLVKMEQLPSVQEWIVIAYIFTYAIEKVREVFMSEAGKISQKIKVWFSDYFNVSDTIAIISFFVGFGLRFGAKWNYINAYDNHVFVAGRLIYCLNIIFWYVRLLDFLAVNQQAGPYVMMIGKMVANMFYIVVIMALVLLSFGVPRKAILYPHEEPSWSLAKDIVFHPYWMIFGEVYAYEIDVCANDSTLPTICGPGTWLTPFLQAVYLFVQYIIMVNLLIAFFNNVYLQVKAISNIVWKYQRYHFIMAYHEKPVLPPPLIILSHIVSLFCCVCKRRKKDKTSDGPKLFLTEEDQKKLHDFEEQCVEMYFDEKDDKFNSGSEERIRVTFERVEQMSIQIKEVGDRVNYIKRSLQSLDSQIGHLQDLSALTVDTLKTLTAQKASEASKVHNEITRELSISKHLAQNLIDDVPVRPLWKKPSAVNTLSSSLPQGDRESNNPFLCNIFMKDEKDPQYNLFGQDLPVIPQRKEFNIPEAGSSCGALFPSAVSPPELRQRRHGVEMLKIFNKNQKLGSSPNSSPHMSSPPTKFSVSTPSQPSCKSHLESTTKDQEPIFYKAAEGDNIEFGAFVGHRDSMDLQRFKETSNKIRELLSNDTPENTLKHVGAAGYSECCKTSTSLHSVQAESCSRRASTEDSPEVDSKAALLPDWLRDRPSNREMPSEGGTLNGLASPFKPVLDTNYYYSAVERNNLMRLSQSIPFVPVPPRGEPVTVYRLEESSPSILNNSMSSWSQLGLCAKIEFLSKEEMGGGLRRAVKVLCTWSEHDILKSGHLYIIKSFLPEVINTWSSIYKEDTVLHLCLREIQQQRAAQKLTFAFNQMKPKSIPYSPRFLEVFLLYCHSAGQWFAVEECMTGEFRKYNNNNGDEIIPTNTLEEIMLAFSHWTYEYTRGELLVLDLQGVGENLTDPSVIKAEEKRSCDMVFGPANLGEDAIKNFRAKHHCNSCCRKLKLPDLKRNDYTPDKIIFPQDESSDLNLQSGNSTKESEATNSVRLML

Structure (SMILES)	Normalized ratio of PI uptake (5 μM) [1]	Normalized ratio of PI uptake (10 μM) [2]	IC50 (Table X) [µM]	Normalized ratio of PI uptake (5 μM) [3]	Normalized ratio of PI uptake (10 μM) [3]	IC50 [3] [µM]
COc1ccc(C)c(N(Cc2ccccn2)C(=O)c2sc3ccccc3c2Cl)c1 [Compound 52]	0.079	0.022	1.29			
Cc1c(Cc2cccc(Cl)c2)c(=O)[nH]c2cc(O)cc(O)c12 [Compound 140]	0.487	0.062	11.1			
Fc1ccc2c(c1)CCN=C2c1sc2ccccc2c1Cl [Compound 42]	0.304	0.010	3.99			
CCN(CC)Cc1c(O)ccc2c(C)c(Cc3ccccc3)c(=O)oc12 [STOCK4S- 10213 #1, reference compound]				0.398	0.242	4.3
COc1ccc2c(c1)C(c1sc3cccc(C)c3c1Cl)NCC2 (stereo not shown) [Compound 128]	0.01	0.06	0.43			
COc1ccc(C)c(N(CC(=O)c2cccs2)C(=O)c2sc3ccccc3c2Cl)c1 [Compound 103]	0.444	0.312	0.81			
COc1ccc(C)c(N(Cc2ccc3ccccc3n2)C(=O)c2sc3ccccc3c2Cl)c1 [Compound 105]	0.07	0.17	0.86			
Fc1ccc2c(c1)CCNC2c1sc2ccccc2c1Cl (stereo not shown) [Compound 43]	0.060	0.020	2.54			
Cc1ccc2c(c1)CCCN2C(=O)c1sc2cc(C(F)(F)F)ccc2c1Cl [Compound 46]	0.149	0.137	1.88			
Cc1c(Cc2c(Cl)cccc2Cl)c(=O)oc2cc(O)c(Cl)cc12 [RJF00028SC #11, reference compound]				0.233	0.136	3.16
COc1cc(OC)c2c(C)c(Cc3cccc(Cl)c3)c(=O)[nH]c2c1 [Compound 94]	0.073	0.042	0.65			
Cc1ccc2c(c1)CCCN2C(=O)c1sc2ccccc2c1F [Compound 45]	0.399	0.072	4.66			
O=S(=O)(Nc1sc2ccccc2c1Cl)c1ccc(F)cc1 [Compound 64]	0.154	0.080	2.87			
COc1ccc(-c2n[nH]cc2CN(C)Cc2cc3ccccc3s2)cc1F [Ambcb42783454 #13, reference compound]				0.498	0.266	4.7
COc1ccc2c(c1)C(c1sc3ccccc3c1Cl)NCC2 (stereo not shown) [Compound 124]	0	0.06	1.13			
Cc1c(Cc2c(Cl)cccc2Cl)c(=O)[nH]c2cc(O)cc(O)c12 [Compound 137]	0.575	0.296	8.5			
Fc1cccc2c1CCN=C2c1sc2ccccc2c1Cl [Compound 112]	0.666	0.244				
Cc1c(Cc2c(F)cccc2Cl)c(=O)[nH]c2cc(O)cc(O)c12 [Compound 133]	0.367	0.123	3.31			

Structure (SMILES)	Normalized ratio of PI uptake (5 μM) [1]	Normalized ratio of PI uptake (10 μM) [2]	IC50 (Table X) [µM]	Normalized ratio of PI uptake (5 μM) [3]	Normalized ratio of PI uptake (10 μM) [3]	IC50 [3] [µM]
COc1cc2ccnc(-c3sc4ccccc4c3Cl)c2cc1OC [Compound 108]	0.038	0.11	1.09			
O=C(c1sc2ccccc2c1Cl)N(Cc1ccccc1)c1ccccc1 [MCC1879 #5, reference compound]				0.108	0.062	1.77
COc1ccc(C)c(N(Cc2cccc(C)n2)C(=O)c2sc3ccccc3c2Cl)c1 [Compound 102]	0.206	0.059	1.61			
CCCc1c(Cc2cccc(Cl)c2)c(=O)[nH]c2cc(O)cc(O)c12 [Compound 134]	0.564	0.305				
CC1c2ccsc2CCN1C(=O)c1[nH]c2ccccc2c1Cl (stereo not shown) [T6899791 #8, reference compound]				0	0	0.7
COc1cc(OC)c2c(C)c(Cc3ccc(F)cc3)c(=O)[nH]c2c1 [Compound 138]	0.034	0.026	0.47			
Cc1c(Cc2ccccc2)c(=O)oc2cc(O)c(Cl)cc12 [STOCK6S- 31467 #2, reference compound]				0.472	0.1	12.6
Cc1cccc2sc(C3NCCc4c(F)cccc43)c(Cl)c12 (stereo not shown) [Compound 127]	0.038	0.044	0.93			
Cc1ccc2c(c1)CCCN2C(=O)c1sc2cc(F)ccc2c1Cl [Compound 7]	0.274	0.067	4.05			
Cc1ccc(N(Cc2ccncc2)C(=O)c2sc3ccccc3c2Cl)c(C)c1 [Compound 98]	0.36	0.067	2.53			
CN1CCc2cc(F)ccc2C1c1sc2ccccc2c1Cl (stereo not shown) [Compound 44]	0.336	0.070	4.25			
COc1cc(OC)c2c(C)c(Cc3ccccc3)c(=O)[nH]c2c1 [Compound 56]	0.255	0.240	0.43			
Cc1cccc2sc(C3=NCCc4ccc(Cl)cc43)c(Cl)c12 [Compound 116]	0.788	0.358	4.75			
O=C(NC1CCOc2ccccc21)c1cc2ccccc2[nH]1 (stereo not shown) [T6749380 #12, reference compound]				0.043	0.029	2.8
COc1ccc2c(Cl)c(C3=NCCc4cc(OC)c(OC)cc43)sc2c1 [Compound 67]	0.054	0.019	0.37			
Cc1ccc2c(c1)CCNC2c1sc2ccccc2c1Cl (stereo not shown) [Compound 54]	0.024	0.029	1.5			
CCCc1c(Cc2c(F)cccc2Cl)c(=O)oc2cc(O)ccc12 [RJF01538SC #14, reference compound]				0.16	0.057	2.78
Cc1ccc2c(c1)CCN(C)C2c1sc2ccccc2c1Cl (stereo not shown) [Compound 55]	0.147	0.059	2.14			
